{"source": "paper PMC7407621", "about": "“Enhancing a de novo enzyme activity by computationally-focused ultra-low-throughput screening” (Chemical Science, 2020)", "tested_on": "GNCA4-WT (GNCA4-W229D/F290W)", "details": "pH 7, 25 °C, 100 mM NaCl, 5% acetonitrile, His-tag", "data": [{"smiles": "O=[N+]([O-])c1ccc2oncc2c1", "note": "[5-nitrobenzisoxazole]", "values": [{"measurement": "Km", "result": "3.7 ± 0.8", "unit": "mM"}]}]}
